Measurements from US9334289B2, “Cephem compound having catechol or pseudo-catechol structure” (SHIONOGI & CO., LTD., priority 2011, dated 2016).
In brackets after ≈: the same amount, converted by molar mass.

Assays:
Experiment in all cases: MIC, CLSI broth microdilution, Test Example 2
Format in all cases: cell-based
A. baumannii SR01331 = settings: Acinetobacter baumannii, SR01331; PER-1, OXA-23.51 ESBL- & OXA-type carbapenemase producing strain; cation-adjusted Iso-Sensitest broth containing human Apo-transferrin; 5×10^5 cfu/mL; read-out: Minimum Inhibitory Concentration (MIC) A. baumannii SR01331
Procedure: (§1) Measurement of Minimum Inhibitory Concentration (MIC: μg/mL) was conducted according to CLSI (Clinical and Laboratory Standards Institute) method, and the amount of bacteria for inoculation was 5×10^5 cfu/mL, and cation-adjusted Iso-Sensitest broth containing human Apo-transferrin was used as a test medium, and the experiment was conducted using broth microdilution method.

E. coli SR01337 = settings: Escherichia coli, SR01337; TEM-1 ESBL producing strain; cation-adjusted Iso-Sensitest broth containing human Apo-transferrin; 5×10^5 cfu/mL; read-out: Minimum Inhibitory Concentration (MIC) E. coli SR01337
Procedure: as §1

K. pneumoniae ATCC700603 = settings: Klebsiella pneumoniae, ATCC700603; SHV18 ESBL producing strain; cation-adjusted Iso-Sensitest broth containing human Apo-transferrin; 5×10^5 cfu/mL; read-out: Minimum Inhibitory Concentration (MIC) K. pneumoniae ATCC 700603
Procedure: as §1

E. cloacae NCTC13464 = settings: Enterobacter cloacae, NCTC13464; CTX-M group 9 ESBL producing strain; cation-adjusted Iso-Sensitest broth containing human Apo-transferrin; 5×10^5 cfu/mL; read-out: Minimum Inhibitory Concentration (MIC) E. cloacae NCTC 13464
Procedure: as §1

E. coli ATCCBAA-200 = settings: Escherichia coli, ATCCBAA200; SHV-4 ESBL producing strain; cation-adjusted Iso-Sensitest broth containing human Apo-transferrin; 5×10^5 cfu/mL; read-out: Minimum Inhibitory Concentration (MIC) E. coli ATCC BAA-200
Procedure: as §1

P. aeruginosa SR01335 = settings: Pseudomonas aeruginosa, SR01335; VIM-1 like MBL producing strain (carbapenem resistance strain); cation-adjusted Iso-Sensitest broth containing human Apo-transferrin; 5×10^5 cfu/mL; read-out: Minimum Inhibitory Concentration (MIC) P. aeruginosa SR01335
Procedure: as §1

P. aeruginosa SR01332 = settings: Pseudomonas aeruginosa, SR01332; VIM-11 MBL producing strain (carbapenem resistance strain); cation-adjusted Iso-Sensitest broth containing human Apo-transferrin; 5×10^5 cfu/mL; read-out: Minimum Inhibitory Concentration (MIC) P. aeruginosa SR01332
Procedure: as §1

E. coli ATCCBAA-196 = settings: Escherichia coli, ATCCBAA196; TEM-10 ESBL producing strain; cation-adjusted Iso-Sensitest broth containing human Apo-transferrin; 5×10^5 cfu/mL; read-out: Minimum Inhibitory Concentration (MIC) E. coli ATCC BAA-196
Procedure: as §1

Row | SMILES | MIC (A. baumannii SR01331) [µg/mL] | MIC (E. coli SR01337) [µg/mL] | MIC (K. pneumoniae ATCC700603) [µg/mL] | MIC (E. cloacae NCTC13464) [µg/mL] | MIC (E. coli ATCCBAA-200) [µg/mL] | MIC (P. aeruginosa SR01335) [µg/mL] | MIC (P. aeruginosa SR01332) [µg/mL] | MIC (E. coli ATCCBAA-196) [µg/mL]
1 | CC(C)(O/N=C(\C(=O)N[C@@H]1C(=O)N2C(c3nnn[n-]3)=C(C[N+]3(C)[C@@H]4CC[C@H]3CC(NC(=O)c3cc(O)c(O)c(F)c3)C4)CS[C@H]12)c1nc(N)sc1Cl)C(=O)[O-].[Na+] (stereo partly drawn) [Compound I-33] | 0.5 | 0.063 | 0.25 | 0.25 | 0.25 | 4 | 2 | 0.063
2 | Nc1nc(/C(=N/O[C@@H](CC(=O)O)C(=O)[O-])C(=O)N[C@@H]2C(=O)N3C(c4nnn[nH]4)=C(C[N@+]45CCC[C@H]4CN(C(=O)c4ccc(O)c(O)c4Cl)CC5)CS[C@H]23)c(Cl)s1 [Compound I-97] | 0.25 (≈ 0.293 µM) | 0.25 (≈ 0.293 µM) | 0.5 (≈ 0.586 µM) | 0.5 (≈ 0.586 µM) | 0.5 (≈ 0.586 µM) | 1 (≈ 1.17 µM) | 4 (≈ 4.69 µM) | 0.125 (≈ 0.147 µM)
3 | CC(C)(O/N=C(\C(=O)N[C@@H]1C(=O)N2C(c3nnn[nH]3)=C(C[N@+]34CCC[C@H]3CN(C(=O)c3ccc(O)c(O)c3Cl)CC4)CS[C@H]12)c1csc(N)n1)C(=O)[O-] [Compound I-98] | 1 (≈ 1.27 µM) | ≤ 0.031 | 0.25 (≈ 0.317 µM) | 0.125 (≈ 0.159 µM) | 0.5 (≈ 0.634 µM) | 2 (≈ 2.54 µM) | 8 (≈ 10.1 µM) | 0.25 (≈ 0.317 µM)
4 | CC(C)(O/N=C(\C(=O)N[C@@H]1C(=O)N2C(c3nnn[nH]3)=C(C[N+]3(CCNC(=O)c4ccc(O)c(O)c4Cl)CCCCC3)CS[C@H]12)c1nsc(N)n1)C(=O)[O-] [Compound I-118] | 0.25 (≈ 0.316 µM) | ≤ 0.031 | 0.063 (≈ 0.0796 µM) | 0.25 (≈ 0.316 µM) | 0.25 (≈ 0.316 µM) | 1 (≈ 1.26 µM) | 8 (≈ 10.1 µM) | 0.25 (≈ 0.316 µM)
5 | C[N+](C)(CCNC(=O)c1ccc(O)c(O)c1Cl)CC1=C(c2nnn[nH]2)N2C(=O)[C@@H](NC(=O)/C(=N\O[C@@H](CC(=O)O)C(=O)[O-])c3nc(N)sc3Cl)[C@H]2SC1 [Compound I-101] | 0.25 (≈ 0.307 µM) | ≤ 0.031 | 0.125 (≈ 0.153 µM) | 0.063 (≈ 0.0773 µM) | 0.063 (≈ 0.0773 µM) | 1 (≈ 1.23 µM) | 2 (≈ 2.46 µM) | ≤ 0.031
6 | CC(C)(O/N=C(\C(=O)N[C@@H]1C(=O)N2C(c3nnn[n-]3)=C(C[N@+]34CCC[C@H]3CN(C(=O)c3cc(O)c(O)c(F)c3)CC4)CS[C@H]12)c1nc(N)sc1Cl)C(=O)[O-].[Na+] [Compound I-34] | 1 | ≤ 0.031 | 0.5 | 0.5 | 0.25 | 2 | 4 | 0.063
7 | Cc1cc2cc(O)c(O)cc2c[n+]1CC1=C(c2nnn[n-]2)N2C(=O)[C@@H](NC(=O)/C(=N\OC(C)(C)C(=O)[O-])c3nc(N)sc3Cl)[C@H]2SC1.[Na+] [Compound I-38] | 0.5 | ≤ 0.031 | 0.125 | 0.125 | 0.25 | 1 | 0.5 | 0.063
8 | Nc1nc(/C(=N/O[C@@H](CC(=O)O)C(=O)[O-])C(=O)N[C@@H]2C(=O)N3C(c4nnn[nH]4)=C(C[N+]4(CCNC(=O)c5ccc(O)c(O)c5F)CCCC4)CS[C@H]23)c(Cl)s1 [Compound I-103] | 0.25 (≈ 0.303 µM) | ≤ 0.031 | 0.5 (≈ 0.607 µM) | 0.125 (≈ 0.152 µM) | 0.125 (≈ 0.152 µM) | 1 (≈ 1.21 µM) | 2 (≈ 2.43 µM) | ≤ 0.031
9 | CC(C)(O/N=C(\C(=O)N[C@@H]1C(=O)N2C(c3nnn[nH]3)=C(C[N+]3(CCNC(=O)c4ccc(O)c(O)c4F)CCCC3)CS[C@H]12)c1nc(N)sc1Cl)C(=O)[O-] [Compound I-106] | 0.5 (≈ 0.63 µM) | ≤ 0.031 | ≤ 0.031 | 0.063 (≈ 0.0793 µM) | 0.063 (≈ 0.0793 µM) | 1 (≈ 1.26 µM) | 4 (≈ 5.04 µM) | ≤ 0.031
10 | CC(C)(O/N=C(\C(=O)N[C@@H]1C(=O)N2C(c3nnn[nH]3)=C(C[N+]34CCCC3CN(C(=O)c3cc(O)c(O)c(Cl)c3)CC4)CS[C@H]12)c1nsc(N)n1)C(=O)[O-] (stereo partly drawn) [Compound I-122] | 0.25 (≈ 0.317 µM) | ≤ 0.031 | 0.125 (≈ 0.158 µM) | 0.063 (≈ 0.0798 µM) | 0.25 (≈ 0.317 µM) | 1 (≈ 1.27 µM) | 4 (≈ 5.07 µM) | 0.125 (≈ 0.158 µM)
11 | Cc1cc2cc(O)c(O)cc2c[n+]1CC1=C(c2nnn[nH]2)N2C(=O)[C@@H](NC(=O)/C(=N\OC(C)(C)C(=O)O)c3nsc(N)n3)[C@H]2SC1.[Na+] [Compound I-109] | 0.5 | ≤ 0.031 | 0.25 | 0.125 | 1 | 1 | 0.5 | 0.5
12 | Nc1nc(/C(=N/O[C@@H](CC(=O)O)C(=O)[O-])C(=O)N[C@@H]2C(=O)N3C(c4nnn[nH]4)=C(C[N+]4(CCNC(=O)c5ccc(O)c(O)c5F)CCCC4)CS[C@H]23)cs1 [Compound I-102] | 0.25 (≈ 0.317 µM) | ≤ 0.031 | ≤ 0.031 | 0.063 (≈ 0.0798 µM) | 0.063 (≈ 0.0798 µM) | 1 (≈ 1.27 µM) | 4 (≈ 5.06 µM) | ≤ 0.031
13 | Nc1nc(/C(=N/O[C@@H](CC(=O)[O-])C(=O)[O-])C(=O)N[C@@H]2C(=O)N3C(c4nnn[n-]4)=C(C[N+]45CCC[C@H]4CN(C(=O)c4ccc(O)c(O)c4Cl)CC5)CS[C@H]23)cs1.[Na+].[Na+] (stereo partly drawn) [Compound I-57] | 0.5 | 0.063 | 0.125 | 0.25 | 0.25 | 1 | 8 | 0.063
14 | Nc1nc(/C(=N/O[C@@H](CC(=O)[O-])C(=O)[O-])C(=O)N[C@@H]2C(=O)N3C(c4nnn[n-]4)=C(C[n+]4ccc5cc(O)c(O)cc5c4)CS[C@H]23)cs1.[Na+].[Na+] [Compound I-65] | 0.125 | ≤ 0.031 | ≤ 0.031 | ≤ 0.031 | ≤ 0.031 | 0.5 | 0.25 | ≤ 0.031
15 | C[N+]1(CC2=C(c3nnn[nH]3)N3C(=O)[C@@H](NC(=O)/C(=N\O[C@@H](CC(=O)O)C(=O)O)c4nc(N)sc4Cl)[C@H]3SC2)[C@@H]2CC[C@H]1C[C@@H](NC(=O)c1ccc(O)c(O)c1Cl)C2.[Na+].[Na+] (stereo partly drawn) [Compound I-96] | 0.25 | 0.125 | 1 | 0.5 | 1 | 2 | 4 | 0.25
